≈ marks a conversion by molar mass, not a printed value. Where “and” joins values, the source holds several entries; their conditions need not be identical. Equal values may be shown once. Entries after “also recorded” stand apart in the source; their conditions may differ. Read-outs that look alike come from different tables or passages of the source.
Experiments:
E. coli = conditions: CAMHB
Description: (§1) Broad-spectrum antimicrobial activity was evaluated using the broth microdilution assays against two different pathogens from four different species of bacteria (P. aeruginosa, S. aureus, K. pneumoniae, and E. coli) to determine if the cyclotides retained its potent activity. Broth microdilution assays were utilized to determine the minimum inhibitory concentrations (MICs) of our cyclotides according to the CLSI (formerly NCCLS) guidelines modifications as described below (40). The assay utilized cation-adjusted Mueller-Hinton broth (CAMHB) (Becton, Dickinson and Company, Franklin Lakes, NJ) which was prepared according to the manufacturer's instructions. Cyclotide solutions were prepared as 10× solutions in 0.01% acetic acid. Cyclotide were serially diluted two-fold at concentrations ranging from 25-0.05 μM that contained CAMHB and 0.04% bovine serum albumin (BSA) in polypropylene microtiter plates (Corning, Corning, NY). All bacteria were incubated overnight at 37° C. at 200 rpm in CAMHB and bacterial inoculum was adjusted with additional CAMHB to 0.5 McFarland standard through spectrophotometry at 600 nm. […] Study strains included a total of 20 P. aeruginosa and 20 methicillin resistant S. aureus strains from patients with cystic fibrosis at the Keck Medical Center of the University of Southern California. […] Colistin sulphate (Sigma-Aldrich, St Louis, MO) was used as a reference antibiotic for P. aeruginosa and E. coli, while vancomycin hydrochloride and meropenem trihydrate were used as reference antibiotics for S. aureus and K. pneumoniae.

[1] = tested on: clinical isolates of P. aeruginosa
Description: as §1

[2] = tested on: clinical isolates of methicillin-resistant S. aureus (MRSA)
Description: as §1

[3] = tested on: human HEK293T and A549 epithelial cells
Description: Cytotoxicity Assay. Cellular toxicities against human HEK293T and A549 epithelial cells were evaluated using Resazurin (Alamarblue™, Thermo Fisher Scientific, Waltham, MA). HEK293T cells were grown in minimum essential media (MEM), while A549 cells were grown in Dulbecco's […] (DMEM) supplemented with 10% fetal bovine serum (FBS) and maintained at 37° C. with 5% CO2. For each cell line, 10^4 cells were added to each well in a 96-well polystyrene plate and incubated for 16 h. Peptides were serially diluted two-fold at concentrations ranging from 100-0.2 μM in medium containing 10% FBS in polystyrene 96 well microtiter plates (Corning) for 16 h. After the incubation period, the cells were washed with PBS and treated with 200 μL/well DMEM media supplemented with 10% FBS containing the peptides at the indicated concentration for 22 h at 37° C. in 5% CO2 and then the medium was replaced with fresh growth medium containing resazurin and incubated for another 2 hours. Cell viability was quantified spectrophotometrically and cells incubated in the absence of peptides and containing 2% Triton X-100 (Sigma) served as controls.

in vitro = conditions: 37° C., LC-MS/MS
Description: This was accomplished by incubating the corresponding peptides in human serum at 37° C. The quantitative analysis of undigested polypeptides was performed using liquid chromatography coupled with tandem mass spectrometry (LC-MS/MS). MCoTI-cyclotides present a very rigid structure,[24] which makes them extremely stable to proteolytic degradation.
Human serum stability. […]. Peptides were dissolved in water at 10 mg/mL concentration. 150 μg of peptides (15 μL) were mixed with 500 μL of human serum and incubated at 37° C. Samples (30 μL) were taken at various time intervals (0-120 h) and serum proteins were precipitated using 180 μL of acetonitrile containing 0.1% TFA. After centrifugation the pellet was dissolved in 8 M GdmCl and the supernatant was lyophilized and re-dissolved in 5% acetonitrile in water containing 0.1% formic acid. Both the supernatant and solubilized pellet fractions were analyzed by HPLC and LC-MS/MS. Each experiment was done in triplicate.

[4] = Maximum tolerated dose (MTD) toxicology study
Text: Colistin was used as a control antibiotic.[28] […] For this purpose, Applicant employed a P. aeruginosa bacterial peritonitis model.[29] This animal model is a well-established acute infection model and is commonly utilized as a common preclinical screening method for new antibiotics.[30] Peritonitis in Balb/c mice (n=10) was established by intraperitoneal injection of 1.5×10^7 colony forming units (CFU) per mouse of P. aeruginosa (Schroeter) Migula (ATCC 27853).
Maximum tolerated dose (MTD) toxicology Studies. The MTD was determined using two different endpoints: weight loss and clinical scoring. Clinical scores were evaluated through activity, appearance and body condition, similar to previously published literature (42). […] Any dose escalation that leads to moderate toxicity (clinical score of >2) was ceased and the dose prior served as the MTD. Mice were monitored every hour for 4 h after injection on the first day. After 24 h, mice were monitored twice daily for another two days until weight and clinical scores were returned to normal. Mice that met the criteria for moribund included a >20% weight loss and clinical score of >3 and were euthanized.

CC[C@H](C)[C@@H]1NC(=O)[C@@H]2CSSC[C@@H]3NC(=O)[C@H](C(C)C)NC(=O)CNC(=O)CNC(=O)[C@H](CCCNC(=N)N)NC(=O)[C@H](CCCNC(=N)N)NC(=O)CNC(=O)[C@H](C(C)C)NC(=O)[C@@H]4CSSC[C@H](NC(=O)[C@H](CC(C)C)NC(=O)[C@H](CCCNC(=N)N)NC(=O)CNC(=O)CNC(=O)[C@H](CO)NC(=O)CNC(=O)[C@H](CO)NC(=O)CNC(=O)[C@@H]5CSSC[C@H](NC(=O)[C@H](CC(=O)O)NC(=O)[C@H](CO)NC(=O)[C@H](CC(=O)O)NC(=O)[C@H](CCCNC(=N)N)NC(=O)[C@H](CCCNC(=N)N)NC(=O)[C@H](CSSC[C@H](NC1=O)C(=O)N[C@@H](CCCNC(=N)N)C(=O)NCC(=O)N[C@@H](CC(N)=O)C(=O)NCC(=O)N[C@@H](Cc1ccc(O)cc1)C(=O)N5)NC(=O)[C@H](CCCNC(=N)N)NC(=O)[C@H](CCC(N)=O)NC(=O)[C@H](CC(C)C)NC(=O)[C@H]([C@@H](C)CC)NC(=O)[C@H](CCCCN)NC(=O)[C@@H]1CCCN1C3=O)C(=O)N1CCC[C@H]1C(=O)NCC(=O)N[C@@H](C)C(=O)N2)C(=O)N[C@@H](Cc1ccc(O)cc1)C(=O)N[C@H]1CSSC[C@H](NC(=O)[C@H](Cc2ccccc2)NC(=O)[C@H](CCCNC(=N)N)NC(=O)[C@H](CCCNC(=N)N)NC(=O)[C@H](CCCNC(=N)N)NC1=O)C(=O)N[C@@H](C(C)C)C(=O)N4 [MCo-PG2]
MIC (E. coli; E. coli DS377): 0.8 µM (≈ 4.4 µg/mL)
MIC (E. coli; E. coli K12): 0.8 µM (≈ 4.4 µg/mL)
P. aeruginosa (PA) MIC ([1]; PA strain 95302): 1.57 µM
P. aeruginosa (PA) MIC ([1]; PA strain 119133): 3.125 µM
P. aeruginosa (PA) MIC ([1]; PA strain 167482): 0.4 µM
P. aeruginosa (PA) MIC ([1]; PA strain 200174): 0.4 µM
P. aeruginosa (PA) MIC ([1]; PA strain 219686): 3.125 µM
P. aeruginosa (PA) MIC ([1]; PA strain 254831): 1.5 µM
P. aeruginosa (PA) MIC ([1]; PA strain 262309): 1.5 µM
P. aeruginosa (PA) MIC ([1]; PA strain 298473): 0.78 µM
P. aeruginosa (PA) MIC ([1]; PA strain 466035): 0.4 µM
P. aeruginosa (PA) MIC ([1]; PA strain 486442): 0.78 µM
P. aeruginosa (PA) MIC ([1]; PA strain 618154): 0.78 µM
P. aeruginosa (PA) MIC ([1]; PA strain 678449): 3.125 µM
P. aeruginosa (PA) MIC ([1]; PA strain 774248): 12.5 µM
P. aeruginosa (PA) MIC ([1]; PA strain 815159): 0.78 µM
P. aeruginosa (PA) MIC ([1]; PA strain 844265): 0.78 µM
P. aeruginosa (PA) MIC ([1]; PA strain 857950): 6.25 µM
P. aeruginosa (PA) MIC ([1]; PA strain 864684): 3.125 µM
P. aeruginosa (PA) MIC ([1]; PA strain 894496): 0.78 µM
P. aeruginosa (PA) MIC ([1]; PA strain 894925): 3.125 µM
P. aeruginosa (PA) MIC ([1]; PA strain 900719): 3.125 µM
S. aureus MIC50 ([2]; MRSA clinical isolates, n=20): 6.25 µM and 6.3 µM
S. aureus MIC90 ([2]; MRSA clinical isolates, n=20): 12.5 µM
S. aureus (SA) MIC ([2]; SA strain 766): 6.25 µM
S. aureus (SA) MIC ([2]; SA strain 4084-1): 12.5 µM
S. aureus (SA) MIC ([2]; SA strain 4094): 12.5 µM
S. aureus (SA) MIC ([2]; SA strain 6151-1): 12.5 µM
S. aureus (SA) MIC ([2]; SA strain 10337-1): 6.25 µM
S. aureus (SA) MIC ([2]; SA strain 10630-1): 6.25 µM
S. aureus (SA) MIC ([2]; SA strain 20021-1): 6.25 µM
S. aureus (SA) MIC ([2]; SA strain 20457-1): 12.5 µM
S. aureus (SA) MIC ([2]; SA strain 28283): 6.25 µM
S. aureus (SA) MIC ([2]; SA strain 28310): 6.25 µM
S. aureus (SA) MIC ([2]; SA strain 28355): 6.25 µM
S. aureus (SA) MIC ([2]; SA strain 30138-2): 3.125 µM
S. aureus (SA) MIC ([2]; SA strain 30493-1): 6.25 µM
S. aureus (SA) MIC ([2]; SA strain 32120-1): 6.25 µM
S. aureus (SA) MIC ([2]; SA strain 38878-2): 3.125 µM
S. aureus (SA) MIC ([2]; SA strain 87066): 12.5 µM
S. aureus (SA) MIC ([2]; SA strain 87112): 12.5 µM
S. aureus (SA) MIC ([2]; SA strain 87180): 6.25 µM
S. aureus (SA) MIC ([2]; SA strain 88,531): 12.5 µM
S. aureus (SA) MIC ([2]; SA strain 902674): 12.5 µM
cytotoxicity relative to PG-1 [3]: about three times less toxic than PG-1; also recorded: about three times less cytotoxic than PG-1
t1/2 in human serum (in vitro): ~60 h
half-life at 0.291 mg/mL (in vitro; human, human serum, t1/2 in human serum): 60 ± 6 h
MTD at 3 days ([4]; Balb/c, mouse, in vivo, ip): 25 mg/kg
times less toxic than PG-1 in mice ([4]; in vivo toxicity studies): approximately 4

Source: patent publication US20240092846A1, “ENGINEERED CYCLOTIDES WITH POTENT BROAD ANTIMICROBIAL ACTIVITY” (priority 2022, published 2024)
